Measured values reported in patent US12606552B2, “Bifunctional compound, preparation method therefor, and use thereof” (SUZHOU KINTOR PHARMACEUTICALS, INC., priority 2020, dated 2026).

Target: T1, AR (Homo sapiens, UniProt P10275, T878A)
T1 sequence (P10275 1-920 T878A): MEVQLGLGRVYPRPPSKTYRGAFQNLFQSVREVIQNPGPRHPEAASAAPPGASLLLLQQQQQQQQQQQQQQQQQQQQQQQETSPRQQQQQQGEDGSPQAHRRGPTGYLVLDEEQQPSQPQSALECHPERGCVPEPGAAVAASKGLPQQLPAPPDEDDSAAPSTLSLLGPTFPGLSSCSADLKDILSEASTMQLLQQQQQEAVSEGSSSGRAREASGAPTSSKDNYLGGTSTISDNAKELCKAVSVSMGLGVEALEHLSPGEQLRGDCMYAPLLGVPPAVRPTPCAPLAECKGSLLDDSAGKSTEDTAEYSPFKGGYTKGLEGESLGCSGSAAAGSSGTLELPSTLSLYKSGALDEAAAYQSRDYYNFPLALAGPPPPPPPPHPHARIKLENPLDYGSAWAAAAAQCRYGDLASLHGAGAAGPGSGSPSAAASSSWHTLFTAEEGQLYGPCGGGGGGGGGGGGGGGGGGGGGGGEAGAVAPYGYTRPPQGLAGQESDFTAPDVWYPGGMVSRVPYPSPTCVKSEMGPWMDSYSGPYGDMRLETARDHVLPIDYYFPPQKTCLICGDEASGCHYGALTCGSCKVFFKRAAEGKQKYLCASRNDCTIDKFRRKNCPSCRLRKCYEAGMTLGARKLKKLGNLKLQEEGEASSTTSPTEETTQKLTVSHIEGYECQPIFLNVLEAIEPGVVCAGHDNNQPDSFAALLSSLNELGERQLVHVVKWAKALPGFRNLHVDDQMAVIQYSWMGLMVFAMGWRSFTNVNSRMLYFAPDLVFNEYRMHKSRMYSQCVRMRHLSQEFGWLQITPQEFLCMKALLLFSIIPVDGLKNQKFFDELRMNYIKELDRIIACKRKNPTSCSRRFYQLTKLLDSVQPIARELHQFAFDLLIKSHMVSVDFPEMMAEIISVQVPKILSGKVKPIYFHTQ
Experiment: Effects of compounds on AR expression in LNCaP cells (ELISA, DC50)
Format: cell-based
Set-up: Measurement of the Effects of Drugs on the Expression of AR in Cells by ELISA Method; endogenous in cells; host or cells: LNCaP
Conditions: 24 hours of drug treatment, AR by ELISA
Experimental: Activity Assay Example 1: Effects of Compounds on AR Expression in LNCaP Cells
1. Cell Line and Cell Culture
Human prostate cancer cells LNCaP (Shanghai Chinese Academy of Sciences Cell Bank). LNCaP was cultured in 1640 medium containing 10% fetal bovine serum. The cells grow in clusters, with weak adhesion to the bottom of the culture flask, slow proliferation, with a multiplication time of 72 h. The cells are closely adhered to each other and need to be digested with 0.05% trypsin containing 0.025% EDTA. The cells were passaged every 3 days. The cells were cultured at 37° C. and 5% CO2 in a humidified incubator
2. Cell plating: The supernatant was discarded, and the Lncap cells in the logarithmic growth phase were taken, washed with PBS once, and added with appropriate 0.05% trypsin digestion solution to be fully digested into single cell suspension, and centrifuged, resuspended and counted to make the number of cells about 15,000 per well, then inoculated in a 96-well plate, placed at 37° C., 5% CO2 and cultured overnight for 24 h.
3. Preparation and Addition of Compound Solutions
About 2 mg of each compound was weighed and dissolved in DMSO to make the stock solution with a concentration of 10 mmol/L. Dilution process (final concentration dilution: 2, 0.667, 0.222, 0.074, 0.0245, 0.008, 0.003, 0.001, 0.0003, 0.0001 μmol/L): 10 centrifuge tubes with a volume of 1.5 mL were taken and numbered 1, 2, 3, 4, 5, 6, 7, 8, 9, and 10, 80 μL DMSO was added to tube No. 1, and 60 μL DMSO was added to tubes No. 2 to No. 10, 20 μL of the stock solution was pipetted to tube No. 1 and mixed well; 30 μL was pipetted from tube No. 1 into tube No. 2 and mixed well. 30 μL was pipetted from tube No. 2 into tube No. 3 and mixed well, and so forth, to obtain samples No. 4-10, and to obtain working solutions of compounds of different concentrations respectively. 2 μL was pipetted from the above-mentioned tubes No. 1-10 into each corresponding sterile deep-well plates, added with 198 μL of culture medium, and mixed well. 11 ul was added to each well of the 96-well cell plate cultured overnight to obtain the corresponding desired concentrations (2, 0.667, 0.222, 0.074, 0.0245, 0.008, 0.003, 0.001, 0.0003, 0.0001 μmol/L).
4. Measurement of the Effects of Drugs on the Expression of AR in Cells by ELISA Method
After 24 hours of drug treatment, the supernatant was removed, and 200 μL of PBS was added to wash cells, and then the supernatant was removed, and 100 μL of cell lysate was added to lyse cells on ice for 20 min, then the cell lysate was centrifuged at 4000 rpm for 20 min at 4° C. and the supernatant was taken for later use. The measurement steps of the supernatant were according to the ELISA kit instructions:
4.1 The slats required for the test were taken out from the sealed bag that has been equilibrated to room temperature. Please put the unused slats and desiccant back into the aluminum foil bag and compress the self-sealing strip, seal the bag, and store at 4° C.
4.2 Standards and sample diluents were added to blank wells, and different concentrations of standards (10 ul/well) and sample diluents (90 ul/well) were added to the remaining corresponding wells, and the reaction wells were sealed with sealing tape, and refrigerated at 4° C. overnight.
4.3 Primary antibody was diluted with dilution buffer to the corresponding concentration and added to each well in 100 ul/well. The reaction wells were sealed with sealing tape and incubated at 37° C. for 60 min.
4.4 Secondary antibody was diluted with dilution buffer to the corresponding concentration and added to each well in 100 ul/well. The reaction wells were sealed with sealing tape and incubated at 37° C. for 30 min.
4.5 The reaction wells were added with 100 ul/well of substrate (TMB) and incubated at room temperature for 30 min.
4.6 The reaction wells were added with 100 ul/well of stop solution, mixed well and then the OD450 value was measured with a microplate reader. […]

Cc1ncsc1-c1ccc(CNC(=O)[C@@H]2C[C@@H](O)CN2C(=O)[C@@H](NC(=O)c2ccc(CC(=O)Nc3ccc(-c4ccc(N5C(=S)N(c6ccc(C#N)c(C(F)(F)F)c6F)C(=O)C5(C)C)cn4)cc3)cc2)C(C)(C)C)cc1 [Compound A244]
DC50: 173 nM

COc1c(C#N)ccc(N2C(=O)C(C)(C)N(c3cnc(-c4ccc(OCCCCOCC(=O)N[C@H](C(=O)N5C[C@H](O)C[C@H]5C(=O)NCc5ccc(-c6scnc6C)cc5)C(C)(C)C)c(F)c4)c(F)c3)C2=S)c1F [Compound A215]
DC50: 83.1 nM

CC(C)(C)[C@H](NC(=O)COCCCCOc1ccc(-c2ccc(N3C(=S)N(c4ccc(C#N)c(C(F)(F)F)c4F)C(=O)C3(C)C)cn2)cc1)C(=O)N1C[C@H](O)C[C@H]1c1nc(-c2cccs2)c[nH]1 [Compound A209]
DC50: 856 nM

COc1c(C#N)ccc(N2C(=O)C(C)(C)N(c3ccc(-c4ccc(OCCCCOCC(=O)N[C@H](C(=O)N5C[C@H](O)C[C@H]5C(=O)NCc5ccc(-c6scnc6C)cc5)C(C)(C)C)cc4)nc3)C2=S)c1F [Compound A185]
DC50: 49.8 nM

Cc1ncsc1-c1ccc(CNC(=O)[C@@H]2C[C@@H](O)CN2C(=O)[C@@H](NC(=O)COCCC(F)COc2ccc(-c3ncc(N4C(=S)N(c5ccc(C#N)c(C(F)(F)F)c5F)C(=O)C4(C)C)cc3F)cc2F)C(C)(C)C)cc1 (stereo partly drawn) [Compound A147]
DC50: 84.9 nM

CC(C)(C)[C@H](NC(=O)COCCCCCOc1ccc(-c2ncc(N3C(=S)N(c4ccc(C#N)c(C(F)(F)F)c4F)C(=O)C3(C)C)cc2F)cc1F)C(=O)N1C[C@H](O)C[C@H]1C(=O)NCc1ccc(C(N)=O)cc1 [Compound A117]
DC50: 111 nM

CC(C)(C)[C@H](NC(=O)COCCCCOc1ccc(-c2ccc(N3C(=S)N(c4ccc(C#N)c(C(F)(F)F)c4F)C(=O)C3(C)C)cn2)cc1C(F)(F)F)C(=O)N1C[C@H](O)C[C@H]1C(=O)NCc1ccc(C(N)=O)cc1 [Compound A121]
DC50: 336 nM

CC(C)(C)[C@H](NC(=O)COCCCCOc1ccc(-c2ncc(N3C(=S)N(c4ccc(C#N)c(C(F)(F)F)c4F)C(=O)C3(C)C)cc2F)c(C(F)(F)F)c1)C(=O)N1C[C@H](O)C[C@H]1c1nc(-c2cncnc2)c[nH]1 [Compound A227]
DC50: 24.8 nM

Cc1ncsc1-c1c[nH]c([C@@H]2C[C@@H](O)CN2C(=O)[C@@H](NC(=O)COCCCCOc2ccc(-c3ncc(N4C(=S)N(c5ccc(C#N)c(C(F)(F)F)c5F)C(=O)C4(C)C)cc3F)c(C(F)(F)F)c2)C(C)(C)C)n1 [Compound A165]
DC50: 43.8 nM

Cc1ncsc1-c1ccc(CNC(=O)[C@@H]2C[C@@H](O)CN2C(=O)[C@@H](NC(=O)COCCOCCCOc2ncc(N3C(=S)N(c4ccc(C#N)c(C(F)(F)F)c4F)C(=O)C3(C)C)cc2F)C(C)(C)C)cc1 [Compound A267]
DC50: 119 nM

Cc1ncsc1-c1ccc([C@H](C)NC(=O)[C@@H]2C[C@@H](O)CN2C(=O)[C@@H](NC(=O)COCCC(F)COc2c(F)cc(-c3ncc(N4C(=S)N(c5ccc(C#N)c(C(F)(F)F)c5F)C(=O)C4(C)C)cc3F)cc2F)C(C)(C)C)cc1 (stereo partly drawn) [Compound A149]
DC50: 111 nM

Cc1ncsc1-c1ccc(CNC(=O)[C@@H]2C[C@@H](O)CN2C(=O)[C@@H](NC(=O)CCN2CCN(C(=O)c3ccc(-c4ccc(N5C(=S)N(c6ccc(C#N)c(C(F)(F)F)c6F)C(=O)C5(C)C)cn4)cc3)CC2)C(C)(C)C)cc1 [Compound A58]
DC50: 133 nM

Cc1ncsc1-c1c[nH]c([C@@H]2C[C@@H](O)CN2C(=O)[C@@H](NC(=O)COCCCCOc2ccc(-c3ncc(N4C(=S)N(c5ccc(C#N)c(C(F)(F)F)c5F)C(=O)C4(C)C)cc3F)cc2F)C(C)(C)C)n1 [Compound A160]
DC50: 151 nM

COc1c(C#N)ccc(N2C(=O)C(C)(C)N(c3cnc(-c4ccc(OCCCCOCC(=O)N[C@H](C(=O)N5C[C@H](O)C[C@H]5C(=O)NCc5ccc(-c6scnc6C)cc5)C(C)(C)C)cc4C(F)(F)F)c(F)c3)C2=S)c1F [Compound A196]
DC50: 39 nM

CC1(C)C(=O)N(c2ccc(C#N)c(C(F)(F)F)c2F)C(=S)N1c1cnc(-c2cc(F)c(OC3CCN(C(=O)COc4ccc5c(c4)C(=O)N(C4CCC(=O)NC4=O)C5=O)CC3)c(F)c2)c(F)c1 (stereo not drawn) [Compound A189]
DC50: 329 nM
